We go through 35 compounds from patent US20020064847A1, “NOVEL SECONDARY ALCOHOL DEHYDROGENASE, PROCESS FOR PREPARING SAID ENZYME, AND PROCESS FOR PREPARING ALCOHOLS AND KETONES USING SAID ENZYME” (priority 1996, published 2002).

“Also recorded” adds a separate entry of the source. Read-outs that look alike come from different tables or passages of the source.

The subject of assay [1] is secondary alcohol dehydrogenase. The experiment in a line: Substrate specificity, oxidation reaction. The assay is classed as biochemical, Geotrichum candidum IFO 4601. The conditions noted are these: coenzyme NAD+, (S)-1,3-butanediol-oxidizing activity = 100. The procedure:
(§1) In the present invention, secondary alcohol dehydrogenase activity was determined by allowing the enzyme to react in the reaction mixture containing potassium phosphate buffer (pH 8.0, 50 μmol), 2.5 μmol NAD^+, and 50μmol (S)-1,3-butanediol at 30° C. and measuring an increase of absorbance at 340 nm resulting from generation of NADH. One unit was defined as the amount of enzyme catalyzing generation of 1μmol of NADH per minute.
(§2) The secondary alcohol dehydrogenase was reacted with various alcohols and aldehydes. Its oxidation and reduction activities are shown in Table 1 as relative activities to (S)-1,3-butanediol-oxidizing activity and 4-hydroxy-2-butanone-reducing activity that are taken as 100.

Assay [2] shares this test system. The experiment in a line: Enzyme kinetic analysis. The assay is classed as biochemical, Geotrichum candidum IFO 4601. The procedure: as §1
The reaction rate constants of the purified secondary alcohol dehydrogenase to the following substrates were measured.

Assay [3] has the same test system. The experiment in a line: Substrate specificity, oxidation reaction. The class given is biochemical, Geotrichum candidum IFO 4601. The conditions noted are these: substrate 50 mM, coenzyme NADP+, (S)-1,3-butanediol-oxidizing activity = 100.
Assay [4] shares this test system. The experiment in a line: Behavior of the secondary alcohol dehydrogenase to inhibitors (residual activity). The conditions noted are these: for Residual activity: 30° C. for 10 minutes. The class given is biochemical, Geotrichum candidum IFO 4601. The procedure:
as §1
The secondary alcohol dehydrogenase was treated with various reagents at 30° C. for 10 minutes.

Assay [5] shares this test system. The experiment in a line: Substrate specificity, reduction reaction. The assay is classed as biochemical, Geotrichum candidum IFO 4601. The settings on record: 4-hydroxy-2-butanone-reducing activity = 100. The procedure: The secondary alcohol dehydrogenase was examined for its activity of oxidation of (S)-1,3-butanediol and that of reduction of 4-hydroxy-2-butanone [which was measured under the same conditions as those used for measuring activity of oxidation of (S)-1,3-butanediol except for using NADH (0.4 μmol) instead of NAD^+] at different pHs using potassium-phosphate buffer (KPB), Tris-HCl buffer and Britten-Robinson buffer by measuring the decrease of absorbance at 340 nm accompanied with reduction of the amount of NADH. The activity is shown in FIGS. 3 and 4 as relative activity with taking the maximal activity as 100. The optimum pH in the reaction was 8.0-9.0 in the case of the oxidation of (S)-1,3-butanediol (FIG. 3) and 7.0 in the case of the reduction of 4-hydroxy-2-butanone (FIG. 4).
as §2

In assay [6] the target is primary alcohol dehydrogenase (SADH 1) (Saccharomyces cerevisiae, UniProt P00330). The settings on record: SADH 1 from Saccharomyces cerevisiae; cited from earlier work.
Where [7] appears, read: substrate 100 mM, coenzyme NADH.

Sequence of primary alcohol dehydrogenase (SADH 1) (P00330 whole entry): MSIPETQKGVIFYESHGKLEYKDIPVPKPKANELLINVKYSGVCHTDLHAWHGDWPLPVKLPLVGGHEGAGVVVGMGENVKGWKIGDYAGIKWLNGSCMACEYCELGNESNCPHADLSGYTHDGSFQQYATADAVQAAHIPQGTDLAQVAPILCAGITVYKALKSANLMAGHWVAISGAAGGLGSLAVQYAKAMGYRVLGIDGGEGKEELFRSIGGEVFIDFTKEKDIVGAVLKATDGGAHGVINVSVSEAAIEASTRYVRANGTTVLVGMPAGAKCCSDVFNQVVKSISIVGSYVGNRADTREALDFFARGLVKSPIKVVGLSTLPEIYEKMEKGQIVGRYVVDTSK

For (R)-2-butanol, in assay [1] (substrate 50 mM), the Relative activity is given as 60.0%.
By Km is commonly meant the substrate concentration at which the rate is half of its maximum. For `C[C@H](O)CCO` [(S)-1,3-butanediol], the Km in assay [2] (purified enzyme) was found to be 41.4 mM. For the same compound, the Vmax in assay [2] (purified enzyme) is given as 36.7 U/mg of protein. Also, the Relative activity worked out at 100% in assay [1] (substrate 50 mM) and 2.4% in assay [3].
In assay [4] (inhibitor 1.0 mM), `O=S(=O)([O-])[O-].[Cu+2]` [copper sulfate] returned a Residual activity of 71.5%.
`O=C(O)CN(CCN(CC(=O)O)CC(=O)O)CC(=O)O` [ethylenediaminetetraacetic acid]: the “Inhibition of the enzyme (in words)” value in assay [4] was “inhibited”. The Residual activity turned out to be 63.5% in assay [4] (inhibitor 1.0 mM) and 9.8% in assay [4] (inhibitor 10 mM).
As to `OCCS` [2-mercaptoethanol], the “Inhibition of the enzyme (in words)” value in assay [4] was “markedly inhibited”; in assay [4] (listed as 2-mercaptethanol), “inhibited”. In addition, in assay [4] (inhibitor 0.01 mM), the Residual activity stood at 6.8%.
For the compound `CCC(C)=O` [2-butanone], in assay [5] (setting [7]), the Relative activity is recorded as 20.2%.
Take `CC(=O)CCO` [4-hydroxy-2-butanone]: the Relative activity is given as 100% in assay [5] (substrate 20 mM, coenzyme NADH) and 0% in assay [5] (substrate 20 mM, coenzyme NADPH).
For the compound `NC(=O)CI` [iodoacetamide], the “Inhibition of the enzyme (in words)” value in assay [4] is “perfectly inhibited; also recorded: markedly inhibited”. In addition, the Residual activity in assay [4] (inhibitor 1.0 mM) is on record as 2.4%.
On to 1-propanol, for which the Relative activity in assay [1] (substrate 100 mM) is on record as 15.5%.
As to `C[C@@H](O)CO` [(R)-1,2-propanediol], the Relative activity in assay [1] (substrate 50 mM) is given as 10.4%.
`C[C@@H](O)CCO` [(R)-1,3-butanediol]: in assay [2] ((S)- versus (R)-1,3-butanediol), the E value is 33.0. In assay [2] (purified enzyme), the Vmax was 4.43 U/mg of protein. In addition, the Relative activity in assay [3] came out at 8.8%.
`[Cl][Co][Cl]` [cobalt chloride] came in with a Residual activity in assay [4] (inhibitor 1.0 mM) of 81.0%.
On to `CC(=O)c1ccccc1` [acetophenone], for which the Relative activity in assay [5] (substrate 20 mM, coenzyme NADH) was determined as 122%.
In the case of `COC(=O)C[C@H](C)O` [methyl (S)-3-hydroxybutyrate], the Relative activity in assay [1] (substrate 50 mM) was found to be 138%.
Regarding `O=C(O)c1cc[c]([Hg][Cl])cc1` [p-chloromercuribenzoic acid], the entries for the “Inhibition of the enzyme (in words)” value in assay [4] and in assay [4] (listed as parachloromercuribenzoic acid) were “perfectly inhibited” and “markedly inhibited”, respectively. In assay [4] (inhibitor 0.05 mM), this compound had a Residual activity of 0.0%.
Regarding `CCOC(=O)CC(C)=O` [ethyl acetoacetate], the Relative activity in assay [5] (setting [7]) was 96.8%.
As for `OCC(O)CO` [glycerol], the Relative activity in assay [1] (substrate 50 mM) was 0%.
With `CCCCCC[C@H](C)O` [(S)-2-octanol], in assay [1] (substrate 5 mM), the Relative activity is listed as 187%.
For the compound `C[C@H](O)c1ccccc1` [(S)-1-phenylethanol], the Relative activity in assay [1] (substrate 50 mM) was determined as 267%.
(RS)-2-butanol: the “Activity relative to ethanol” value in assay [6] was “approximately 1%”. Besides, the Relative activity in assay [1] (substrate 100 mM) is listed as 85.9%.
Regarding `CCCCCC[C@@H](C)O` [(R)-2-octanol], the Relative activity in assay [1] (substrate 5 mM) is given as 13.3%.
Regarding `C[C@@H](O)c1ccccc1` [(R)-1-phenylethanol], the Relative activity in assay [1] (substrate 50 mM) is 19.2%.
For `CC(C)=O` [acetone], the Relative activity in assay [5] (setting [7]) is listed as 164%.
As for `[Cl][Hg][Cl]` [mercuric chloride], the “Inhibition of the enzyme (in words)” value in assay [4] was “markedly inhibited”; in assay [4] (listed as mercury chloride), “inhibited”. The Residual activity in assay [4] (inhibitor 1.0 mM) is 0.0%.
With `C[C@H](O)CO` [(S)-1,2-propanediol], the Relative activity in assay [1] (substrate 50 mM) is 23.8%.
1-butanol: the Relative activity in assay [1] (substrate 100 mM) came to 12.9%.
Regarding `C=CCO` [allyl alcohol], the Relative activity in assay [1] (substrate 100 mM) stood at 18.7%.
The compound `O[C@H](CS)[C@H](O)CS` (racemic) [dithiothreitol] came in with a Residual activity in assay [4] (inhibitor 1.0 mM) of 42.9%.
In the case of `[Cl-].[Cl-].[Zn+2]` [zinc chloride], the “Inhibition of the enzyme (in words)” value in assay [4] is “markedly inhibited”. The Residual activity in assay [4] (inhibitor 10 mM) is given as 0.9%.
For the compound `CC(C)O` [2-propanol], the Relative activity in assay [1] (substrate 100 mM) was found to be 96.8%.
Turning to `CCO` [ethanol], in assay [1] (substrate 100 mM), the Relative activity is recorded as 10.7%.
With `OC1CCCCC1` [cyclohexanol], the Relative activity in assay [1] (substrate 20 mM) came out at 90.4%.
For the compound (S)-2-butanol, the Relative activity in assay [1] (substrate 50 mM) turned out to be 112%.
In the case of `CO` [methanol], the Relative activity in assay [1] (substrate 100 mM) came out at 60.8%.
For the compound `COC(=O)C[C@@H](C)O` [methyl (R)-3-hydroxybutyrate], the Relative activity in assay [1] (substrate 50 mM) was found to be 22.1%.
